From patent US8367623B2, “Glycolipid and medicine for autoimmune disease containing the same as active ingredient” (Japan as Represented by President of National Center of …, priority 2001, dated 2013)

Assays:
Murine spleen cells [1] = test: spleen cell proliferation reaction (thymidine incorporation); assay type: cell-based; details: FIG. 7 and FIG. 9
Method: Murine spleen cells were isolated, and the proliferation reaction for the synthesized glycolipids were measured using thymidine incorporation into the cells as the indicator.
(§1) Murine spleen cells were isolated, and the proliferation reactions for synthesized glycolipids were measured using thymidine incorporation into the cells as the indicator. […] Murine spleen cells were isolated, and levels of INF-γ and IL-4 formation due to the synthesized glycolipids were measured using the ELISA method.

Murine spleen cells [2] = test: spleen cell cytokine measurements (INF-γ and IL-4, ELISA); assay type: cell-based; details: FIG. 8 and FIG. 9
Method: Murine spleen cells were isolated, and levels of INF-γ and IL-4 formation due to synthesized glycolipids were measured using the ELISA method.
as §1

diabetes incidence = test: suppression test of diabetes incidence in NOD mice; assay type: in vivo; details: NOD mice four weeks in age, 100 μg/kg intraperitoneal, twice, FIG. 5
Method: Next, a suppression test of diabetes incidence was conducted using NOD mice.

[3] = system: experimental autoimmune encephalomyelitis (EAE); test: EAE suppression test in NKT knockout mice; assay type: in vivo, NKT knockout mice (TCR J alpha 281 knockout mice); details: for Incidence / Max. score / Onset / Total score: NKT knockout mice, 0 day oral administration, 400 ng/kg
anti-MOG antibody = test: serum anti-MOG antibody measurements (ELISA); assay type: in vivo; details: FIG. 10
Text: The ELISA method was used to measure levels of anti-MOG antibody and its isotype in the group treated using synthesized glycolipids. The anti-MOG antibody level rose in the group treated using Compound 25.

serum INF-γ and IL-4 = test: cytokines in blood (serum INF-γ and IL-4, ELISA); assay type: in vivo; details: administered to mice, serum levels with elapsed time, FIG. 6
Method: A large amount of cytokine is known to be released into the blood in a short duration of time when NKT cells are stimulated. Therefore, serum INF-γ and IL-4 levels with elapsed time were measured using the ELISA method when the synthesized glycolipids were administered to mice.

[4] = system: collagen induced arthritis; test: collagen arthritis (CIA) suppression test, SJL mice; assay type: in vivo; details: FIG. 4
[5] = system: experimental autoimmune encephalomyelitis (EAE); test: mechanism of EAE suppression, with or without anti-IL-4 antibody; assay type: in vivo, mice
[6] = system: experimental autoimmune encephalomyelitis (EAE); test: experimental autoimmune encephalomyelitis (EAE) suppression test, B6 mice; assay type: in vivo, C57BL6J(B6) mice; details: for Incidence / Onset / Total score / Max. score / Path. score: 400 ng/kg; for Path. score: pathological score 0-4; for EAE suppression effect: oral administration 400 ng/kg
[7] = system: collagen induced arthritis; test: collagen arthritis (CIA) suppression test, C57BL6 mice; assay type: in vivo; details: B6 mice, 500 μg/kg intraperitoneally twice a week from the additional immunization, FIG. 4
[8] = system: experimental autoimmune encephalomyelitis (EAE), collagen induced arthritis; details: J. Immunol. 2001, 166, 662-669, cited from earlier work
[9] = anti-IL-4 (+), anti-IL-4 antibody (1 mg/ml) intraperitoneally
[10] = 0 day oral administration, clinical score 0-6

CCCCCCCCCCCCCCCCCCCCCCCC(=O)N[C@@H](CO[C@H]1O[C@H](CO)[C@H](O)[C@H](O)[C@H]1O)[C@H](O)[C@H](O)CCCC [Compound 23, (2S,3S,4R)-1-O-(α-D-galactosyl)-2-(tetracosanoylamino)-1,3,4-octane triol]
spleen cell proliferation reaction (Murine spleen cells [1]): Significant spleen cell proliferation reaction | cytokine predominantly formed by spleen cells (INF-γ / IL-4) (Murine spleen cells [2]): IL-4 was predominantly formed

CCCCCCCCCCCCCCCCCCCCCCCC(=O)N[C@@H](CO[C@H]1O[C@H](CO)[C@H](O)[C@H](O)[C@H]1O)[C@H](O)[C@H](O)CCC [Compound 24, (2S,3S,4R)-1-O-(α-D-galactosyl)-2-(tetracosanoylamino)-1,3,4-heptane triol]
spleen cell proliferation reaction (Murine spleen cells [1]): Significant spleen cell proliferation reaction | cytokine predominantly formed by spleen cells (INF-γ / IL-4) (Murine spleen cells [2]): IL-4 was predominantly formed

CCCCCCCCCCCCCCCCCCCCCCCC(=O)N[C@@H](CO[C@H]1O[C@H](CO)[C@H](O)[C@H](O)[C@H]1O)[C@H](O)[C@H](O)CCCCC [Compound 25, (2S,3S,4R)-1-O-(α-D-galactosyl)-2-(tetracosanoylamino)-1,3,4-nonane triol]
diabetes incidence (diabetes incidence): significantly suppressed | spleen cell proliferation reaction (Murine spleen cells [1]): Significant spleen cell proliferation reaction | cytokine predominantly formed by spleen cells (INF-γ / IL-4) (Murine spleen cells [2]): IL-4 was predominantly formed | EAE suppression effect ([3]; NKT knockout mice (TCR J alpha 281 knockout mice), result in words): could not be observed | Incidence [3]: 6/6 | Max. score [3]: 3.64 ± 0.28 | Onset [3]: 12.43 ± 0.53 | Total score [3]: 34.36 ± 4.15 | anti-MOG antibody isotype, IgG1 level (anti-MOG antibody): rose significantly | anti-MOG antibody level (anti-MOG antibody): rose | serum cytokine predominantly formed (INF-γ / IL-4) (serum INF-γ and IL-4): IL-4 was predominantly formed | suppression of collagen induced arthritis (clinical score) ([4]; 500 μg/kg intraperitoneally twice a week from the additional immunization): effectively suppressed | suppression of collagen induced arthritis (clinical score) ([4]; 500 μg/kg intraperitoneally twice a week, administration upon appearance of symptoms): effectively suppressed | Incidence [5, 9]: 10/10 | Max. score [5, 9]: 3.50 ± 0.15 | Onset [5, 9]: 9.43 ± 0.90 | Total score [5, 9]: 38.79 ± 2.94 | Incidence ([5]; anti-IL-4 (−)): 9/10 | Max. score ([5]; anti-IL-4 (−)): 2.75 ± 0.37 | Onset ([5]; anti-IL-4 (−)): 11.00 ± 0.78 | Total score ([5]; anti-IL-4 (−)): 26.05 ± 4.16 | EAE suppression effect when anti-IL-4 antibody was administered ([5]; anti-IL-4 antibody, result in words): disappeared | Incidence ([6]; 0 day oral administration): 10/12 | Onset ([6]; 0 day oral administration): 14.80 ± 1.22 | Total score ([6]; 0 day oral administration): 10.71 ± 3.23 | Max. score [6, 10]: 1.42 ± 0.33 | Path. score ([6]; 0 day oral administration): 1.00 ± 0.13 | Incidence ([6]; 8th day oral administration): 6/7 | Max. score ([6]; 8th day oral administration): 2.25 ± 0.51 | Onset ([6]; 8th day oral administration): 16.43 ± 1.95 | Total score ([6]; 8th day oral administration): 10.94 ± 3.40 | EAE suppression effect ([6]; result in words): EAE suppression effect was observed | suppression effect in the pathological test ([6]; oral administration, result in words): suppression effect was observed | suppression of collagen induced arthritis (clinical score) [7]: A suppression effect was observed

CCCCCCCCCCCCCCCCCCCCCCCCCC(=O)N[C@@H](CO[C@H]1O[C@H](CO)[C@H](O)[C@H](O)[C@H]1O)[C@H](O)[C@H](O)CCCCCCCCCCCCCC [α-GC, (2S,3S,4R)-1-O-(α-D-galactosyl)-2-(N-hexacosanoylamino)-1,3,4-octadecane triol, reference compound]
cytokine predominantly formed by spleen cells (INF-γ / IL-4) (Murine spleen cells [2]): INF-γ was predominantly formed | Incidence [3]: 6/6 | Max. score [3]: 3.67 ± 0.42 | Onset [3]: 13.33 ± 1.41 | Total score [3]: 32.25 ± 6.66 | serum cytokine predominantly formed (INF-γ / IL-4) (serum INF-γ and IL-4): INF-γ was predominantly formed | effect in suppressing or treating autoimmune diseases ([8]; EAE and collagen induced arthritis models): clearly not effective | cytokines induced [8]: induces both IL-4, a cytokine that suppresses autoimmune diseases, as well as IFN-γ | Incidence [5, 9]: 10/10 | Max. score [5, 9]: 3.79 ± 0.29 | Onset [5, 9]: 11.29 ± 1.58 | Total score [5, 9]: 37.00 ± 5.02 | Incidence ([5]; anti-IL-4 (−)): 10/10 | Max. score ([5]; anti-IL-4 (−)): 4.00 ± 0.25 | Onset ([5]; anti-IL-4 (−)): 9.10 ± 0.84 | Total score ([5]; anti-IL-4 (−)): 45.00 ± 3.87 | Incidence ([6]; 0 day oral administration): 12/12 | Onset ([6]; 0 day oral administration): 14.27 ± 0.98 | Total score ([6]; 0 day oral administration): 20.32 ± 4.07 | Max. score [6, 10]: 2.41 ± 0.37 | Path. score ([6]; 0 day oral administration): 1.79 ± 0.38 | Incidence ([6]; 8th day oral administration): 7/7 | Max. score ([6]; 8th day oral administration): 3.00 ± 0.29 | Onset ([6]; 8th day oral administration): 13.86 ± 0.99 | Total score ([6]; 8th day oral administration): 17.50 ± 2.74 | EAE suppression effect ([6]; result in words): no suppression effect was observed
